Assay: Particle size distribution (Psd comparison) of Tiacumicin B crystals
Type: physicochemical
Settings: in µm (unit assumed)
Experimental: 3000 g of pure Tiacumicin B were dissolved in about 40 L of CH3OH. 80 L of (C2H5)2O were added under stirring to the solution at the room temperature. The solution was then heated at 39° C. and the mixer speed was set at 20 rpm; 160 L of n-Pentane were added in about 30 minutes. The mixer speed was then set at 15 rpm and the solution was cooled at 5° C. in about 5 hours. The suspension was then filtered and product dried under vacuum. The crystal obtained has a not well defined crystal shape and a high amount of fine that make the product difficult to formulate. […] of pure Tiacumicin B were dissolved in 33 mL of CH3OH. 66 mL of (C2H5)2O were added under stirring to the solution at the room temperature. The solution was then heated at 39° C. and the mixer speed was set at 400 rpm; 132 mL of n-Pentane were added in about 30 minutes. The mixer speed was then set at 200 rpm and the solution was cooled at 5° C. in about 60 minutes. The suspension was heated at 30° C. and maintained at this temperature for about 30 minutes; then the suspension was cooled at 5° C. in about 60 minutes. The suspension was heated at 25° C. and maintained at this temperature for about 30 minutes; then the suspension was cooled at 5° C. in about 60 minutes. The suspension was heated at 15° C. and maintained at this temperature for about 30 minutes; then the suspension was cooled at 5° C. in about 60 minutes and maintained in this condition over night. The crystals obtained has a different more homogeneous and regular crystal habit respect to that obtained with the standard process and an improved psd (see FIGS. 3 and 4 and Table). 2000 g of pure Tiacumicin B were dissolved in 26 L of CH3OH. 52 L of (C2H5)2O were added under stirring to the solution at the room temperature. The solution was then heated at 39° C. and the mixer speed was set at 20 rpm; 130 L of n-Pentane were added in about 30 minutes. The mixer speed was then set at 8 rpm and the solution was cooled at 35° C. and maintained at this temperature for about 60 minutes. The suspension was cooled at 30° C. and maintained at this temperature for about 60 minutes. Then the suspension was cooled at 25° C. and maintained at this temperature for about 30 minutes. Then the suspension was cooled at 20° C. and maintained at this temperature for about 30 minutes. Then the suspension was cooled at 15° C. and maintained at this temperature for about 30 minutes. Then the suspension was cooled at 10° C. and maintained at this temperature for about 30 minutes. Then the suspension was cooled at 5° C. and maintained at this temperature for about 30 minutes. The suspension was heated at 30° C. and maintained at this temperature for about 30 minutes; then the suspension was cooled at 5° C. in about 60 minutes. The suspension was heated at 25° C. and maintained at this temperature for about 30 minutes; then the suspension was cooled at 5° C. in about 60 minutes. The suspension was heated at 15° C. and maintained at this temperature for about 30 minutes; then the suspension was cooled at 5° C. in about 60 minutes and maintained in this condition over night. The crystals obtained has a different more homogeneous and regular crystal habit respect to that obtained with the standard process and an improved psd (see FIGS. 3 and 4 and Table).

| SMILES | D(0.1) | D(0.5) | D(0.9) |
| --- | --- | --- | --- |
| CCc1c(Cl)c(O)c(Cl)c(O)c1C(=O)O[C@H]1[C@H](O)[C@H](OC)[C@H](OC/C2=C\C=C\C[C@H](O)/C(C)=C/[C@H](CC)[C@@H](O[C@@H]3OC(C)(C)[C@@H](OC(=O)C(C)C)[C@H](O)[C@@H]3O)/C(C)=C/C(C)=C/C[C@@H]([C@@H](C)O)OC2=O)O[C@@H]1C [Example 1, Tiacumicin B] | 3.90 | 11.36 | 27.35 |
| CCc1c(Cl)c(O)c(Cl)c(O)c1C(=O)O[C@H]1[C@H](O)[C@H](OC)[C@H](OC/C2=C\C=C\C[C@H](O)/C(C)=C/[C@H](CC)[C@@H](O[C@@H]3OC(C)(C)[C@@H](OC(=O)C(C)C)[C@H](O)[C@@H]3O)/C(C)=C/C(C)=C/C[C@@H]([C@@H](C)O)OC2=O)O[C@@H]1C [Example 2, Tiacumicin B] | 10.82 | 35.94 | 73.79 |
| CCc1c(Cl)c(O)c(Cl)c(O)c1C(=O)O[C@H]1[C@H](O)[C@H](OC)[C@H](OC/C2=C\C=C\C[C@H](O)/C(C)=C/[C@H](CC)[C@@H](O[C@@H]3OC(C)(C)[C@@H](OC(=O)C(C)C)[C@H](O)[C@@H]3O)/C(C)=C/C(C)=C/C[C@@H]([C@@H](C)O)OC2=O)O[C@@H]1C [Example 3, Tiacumicin B] | 7.04 | 23.98 | 55.27 |
